PubChem BioAssay (NCI)
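Tested at 5 concentrations; 48 h exposure; 96-well plates; endpoints linearly interpolated, else capped at highest concentration. Abbreviation: GI50, concentration required for 50% inhibition of growth. TGI: total growth inhibition.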

Tests used:
Assay in all cases: inhibition of tumour cell growth, NCI panel, 48 h
ACHN renal = tested on: ACHN renal
TK-10 renal = tested on: TK-10 renal
LOX IMVI melanoma = tested on: LOX IMVI melanoma
UACC-257 melanoma = tested on: UACC-257 melanoma
786-0 renal = tested on: 786-0 renal
SNB-19 CNS = tested on: SNB-19 CNS
SF-295 CNS = tested on: SF-295 CNS
SF-539 CNS = tested on: SF-539 CNS
EKVX NSCLC = tested on: EKVX NSCLC
COLO 205 colon = tested on: COLO 205 colon
DU-145 prostate = tested on: DU-145 prostate
SK-OV-3 ovarian = tested on: SK-OV-3 ovarian
M14 melanoma = tested on: M14 melanoma
SK-MEL-2 melanoma = tested on: SK-MEL-2 melanoma
HOP-92 NSCLC = tested on: HOP-92 NSCLC
SN12C renal = tested on: SN12C renal
NCI-H226 lung = tested on: NCI-H226 lung
IGROV1 ovarian = tested on: IGROV1 ovarian
RPMI-8226 leukemia = tested on: RPMI-8226 leukemia
NCI-H460 lung = tested on: NCI-H460 lung
U251 CNS = tested on: U251 CNS
SK-MEL-5 melanoma = tested on: SK-MEL-5 melanoma
MALME-3M melanoma = tested on: MALME-3M melanoma
UACC-62 melanoma = tested on: UACC-62 melanoma
OVCAR-8 ovarian = tested on: OVCAR-8 ovarian
HOP-62 NSCLC = tested on: HOP-62 NSCLC
CAKI-1 renal = tested on: CAKI-1 renal
SW-620 colon = tested on: SW-620 colon
BT-549 breast = tested on: BT-549 breast
A498 renal = tested on: A498 renal
MOLT-4 leukemia = tested on: MOLT-4 leukemia
HL-60(TB) leukemia = tested on: HL-60(TB) leukemia
SF-268 CNS = tested on: SF-268 CNS
T-47D breast = tested on: T-47D breast
MDA-MB-435 = tested on: MDA-MB-435
CCRF-CEM leukemia = tested on: CCRF-CEM leukemia
OVCAR-4 ovarian = tested on: OVCAR-4 ovarian
PC-3 prostate = tested on: PC-3 prostate
MCF7 breast = tested on: MCF7 breast
OVCAR-5 ovarian = tested on: OVCAR-5 ovarian
K-562 leukemia = tested on: K-562 leukemia
SK-MEL-28 melanoma = tested on: SK-MEL-28 melanoma
HCT-116 colon = tested on: HCT-116 colon
NCI-H23 lung = tested on: NCI-H23 lung
OVCAR-3 ovarian = tested on: OVCAR-3 ovarian
SR leukemia = tested on: SR leukemia
HT29 colon = tested on: HT29 colon
HCC-2998 colon = tested on: HCC-2998 colon
HCT-15 colon = tested on: HCT-15 colon
SNB-75 CNS = tested on: SNB-75 CNS
NCI/ADR-RES ovarian = tested on: NCI/ADR-RES ovarian
HS 578T breast = tested on: HS 578T breast
NCI-H522 lung = tested on: NCI-H522 lung
UO-31 renal = tested on: UO-31 renal
MDA-MB-231 breast = tested on: MDA-MB-231 breast
A549 NSCLC = tested on: A549 NSCLC
KM12 colon = tested on: KM12 colon
RXF 393 renal = tested on: RXF 393 renal

O=C1/C=C/[C@@H](O)[C@@H]2C[C@@H](O)C[C@H]2/C=C/CCC[C@H](CCOCc2ccccc2)O1
GI50 (ACHN renal): 0.317 µM
TGI (ACHN renal): > 100 µM
GI50 (TK-10 renal): 0.186 µM
TGI (TK-10 renal): 0.658 µM
GI50 (LOX IMVI melanoma): 0.0352 µM
TGI (LOX IMVI melanoma): 0.168 µM
GI50 (UACC-257 melanoma): 0.0161 µM
TGI (UACC-257 melanoma): 2.32 µM
GI50 (786-0 renal): 0.0223 µM
TGI (786-0 renal): 0.0537 µM
GI50 (SNB-19 CNS): 0.138 µM
TGI (SNB-19 CNS): > 100 µM
GI50 (SF-295 CNS): 0.051 µM
TGI (SF-295 CNS): > 100 µM
GI50 (SF-539 CNS): 0.112 µM
TGI (SF-539 CNS): > 100 µM
GI50 (EKVX NSCLC): 0.141 µM
TGI (EKVX NSCLC): > 100 µM
GI50 (COLO 205 colon): 0.0292 µM
TGI (COLO 205 colon): 0.0809 µM
GI50 (DU-145 prostate): 0.412 µM
TGI (DU-145 prostate): > 100 µM
GI50 (SK-OV-3 ovarian): 0.0481 µM
TGI (SK-OV-3 ovarian): > 100 µM
GI50 (M14 melanoma): 0.0403 µM
TGI (M14 melanoma): 13.2 µM
GI50 (SK-MEL-2 melanoma): 0.172 µM
TGI (SK-MEL-2 melanoma): 0.649 µM
GI50 (HOP-92 NSCLC): 0.234 µM
TGI (HOP-92 NSCLC): 0.909 µM
GI50 (SN12C renal): 0.272 µM
TGI (SN12C renal): > 100 µM
GI50 (NCI-H226 lung): 0.0188 µM
TGI (NCI-H226 lung): 0.251 µM
GI50 (IGROV1 ovarian): 0.335 µM
TGI (IGROV1 ovarian): > 26.3 µM
GI50 (RPMI-8226 leukemia): 0.297 µM
TGI (RPMI-8226 leukemia): 20.6 µM
GI50 (NCI-H460 lung): 0.38 µM
TGI (NCI-H460 lung): > 100 µM
GI50 (U251 CNS): 0.0978 µM
TGI (U251 CNS): > 100 µM
GI50 (SK-MEL-5 melanoma): < 0.0134 µM
TGI (SK-MEL-5 melanoma): 0.0227 µM
GI50 (MALME-3M melanoma): 0.0365 µM
TGI (MALME-3M melanoma): 0.428 µM
GI50 (UACC-62 melanoma): 0.0372 µM
TGI (UACC-62 melanoma): 12.6 µM
GI50 (OVCAR-8 ovarian): 0.0523 µM
GI50 (HOP-62 NSCLC): 0.0738 µM
TGI (HOP-62 NSCLC): > 100 µM
GI50 (CAKI-1 renal): 0.331 µM
TGI (CAKI-1 renal): > 100 µM
GI50 (SW-620 colon): 0.0994 µM
TGI (SW-620 colon): 0.822 µM
GI50 (BT-549 breast): 0.117 µM
TGI (BT-549 breast): > 21.9 µM
GI50 (A498 renal): 0.0178 µM
TGI (A498 renal): 0.123 µM
GI50 (MOLT-4 leukemia): 0.305 µM
TGI (MOLT-4 leukemia): > 43.7 µM
GI50 (HL-60(TB) leukemia): 0.282 µM
TGI (HL-60(TB) leukemia): 3.31 µM
GI50 (SF-268 CNS): 0.0376 µM
TGI (SF-268 CNS): > 100 µM
GI50 (T-47D breast): 0.192 µM
TGI (T-47D breast): 0.556 µM
GI50 (MDA-MB-435): 0.0539 µM
TGI (MDA-MB-435): > 100 µM
GI50 (CCRF-CEM leukemia): 0.301 µM
TGI (CCRF-CEM leukemia): > 100 µM
GI50 (OVCAR-4 ovarian): 0.0643 µM
TGI (OVCAR-4 ovarian): > 41.2 µM
GI50 (PC-3 prostate): 0.164 µM
TGI (PC-3 prostate): > 100 µM
GI50 (MCF7 breast): 0.0399 µM
TGI (MCF7 breast): 0.177 µM
GI50 (OVCAR-5 ovarian): 0.246 µM
TGI (OVCAR-5 ovarian): > 100 µM
GI50 (K-562 leukemia): 0.327 µM
TGI (K-562 leukemia): > 100 µM
GI50 (SK-MEL-28 melanoma): < 0.017 µM
TGI (SK-MEL-28 melanoma): 0.0849 µM
GI50 (HCT-116 colon): 0.162 µM
TGI (HCT-116 colon): 0.379 µM
GI50 (NCI-H23 lung): 0.105 µM
TGI (NCI-H23 lung): 0.714 µM
GI50 (OVCAR-3 ovarian): 0.039 µM
TGI (OVCAR-3 ovarian): 0.187 µM
GI50 (SR leukemia): 0.142 µM
GI50 (HT29 colon): 0.0274 µM
TGI (HT29 colon): 0.212 µM
GI50 (HCC-2998 colon): 0.11 µM
GI50 (HCT-15 colon): 0.29 µM
TGI (HCT-15 colon): 12.9 µM
GI50 (SNB-75 CNS): < 0.0277 µM
TGI (SNB-75 CNS): > 95.4 µM
GI50 (NCI/ADR-RES ovarian): 0.0469 µM
TGI (NCI/ADR-RES ovarian): 5.27 µM
GI50 (HS 578T breast): < 0.0226 µM
TGI (HS 578T breast): > 100 µM
GI50 (NCI-H522 lung): 0.234 µM
TGI (NCI-H522 lung): 0.577 µM
GI50 (UO-31 renal): 0.0701 µM
TGI (UO-31 renal): 26.6 µM
GI50 (MDA-MB-231 breast): 0.102 µM
TGI (MDA-MB-231 breast): 0.267 µM
GI50 (A549 NSCLC): 0.066 µM
TGI (A549 NSCLC): > 100 µM
TGI (KM12 colon): 0.031 µM
GI50 (RXF 393 renal): < 0.0139 µM
TGI (RXF 393 renal): 0.0436 µM
